Patent publication US20150018360A1, “COMPOSITIONS AND METHODS FOR TREATING METABOLIC DISORDERS” (BIOMED VALLEY DISCOVERIES, INC., priority 2011, published 2015)
Values belong to the molecule of their own block, whether it stands above or below them.

How the values were obtained:
[1] = tested on: circulating prolactin levels; test: Prolactin assay (plasma prolactin ELISA after OGTT); type: in vivo, mouse; settings: DIO mice, once daily i.p. for 5 days, plasma 45 min after glucose load
Procedure: Mice were treated with drug or vehicle 30 minutes before an OGTT (t-30). At 45 minutes after glucose load (t45), mice were bled via retro-orbital sinus into EDTA microfuge tubes. Plasma was rapidly prepared and stored at −80° C. until measurement of prolactin levels (ELISA kit, Genway Biotech, San Diego, Calif.).

[2] = tested on: normal mice; test: OGTT with plasma insulin determination in normal mice; type: in vivo, mouse; settings: single dose 10 mg/kg i.p.
Procedure: (§1) Normal male 12 week old C57BL/6J mice were food deprived 6 hours before the glucose load (1.5 g/kg, t0). Mice were treated with drug or vehicle 30 minutes before glucose load (t-30). Blood glucose was measured with a glucometer (Accu-Chek® Roche, Nutley, N.J.), from the tip of the tail in free moving mice, at t-30, t0, t15, t30, t60, t90, t120 minutes. Blood collection (about 20 μl) was performed from the tip of the tail at t-30, t15 and t30 for plasma insulin determination (ELISA kit, Alpco Diagnostics, Salem, N.H.). After a 1-week washout period, mice were randomly allocated into 2 groups. Mice were food deprived 6 hours before the glucose load (1.5 g/kg, t0) was performed. Mice were treated with drug or vehicle 30 minutes before glucose load. Blood glucose was measured at t0 and t15 minutes. At t15, mice were anesthetized with isoflurane and blood was collected from the hepatoportal vein (on EDTA/diprotin/ aprotinin anticoagulant cocktail). Plasma was rapidly prepared and stored at -80° C. The active form of GLP-1 was then measured (ELISA kit, Millipore, Billerica, Mass.).

[3] = tested on: active GLP-1; test: Active GLP-1 in hepatoportal vein blood of normal mice; type: in vivo, mouse; settings: 10 mg/kg i.p., 15 min after glucose bolus
Procedure: as §1

[4] = Pharmacokinetic analysis in mice (plasma, LC/MS/MS); type: in vivo, mouse; settings: normal male mice, 10 mg/kg i.p.
Procedure: Male C57B1/6 mice (n =4, two cohorts) were treated with drug and at the designated times after dosing (5, 15, 30, 60 and 120), whole blood was collected via the retro-orbital sinus in heparanized tubes and plasma prepared by centrifugation at 1650 relative centrifugal force (RCF) at 4° C. Plasma samples were extracted by a standard protocol using an acetonitrile/protein precipitation method, and levels of test agent were analyzed by LC/MS/MS.

[5] = tested on: serum prolactin levels; settings: rat, cited from earlier work; for increase in serum prolactin levels: marker of dopamine D2 receptor blockade
[6] = tested on: dopamine D2/D3 receptors; settings: in-vitro assays; cited from earlier work
[7] = tested on: diet-induced obese (DIO) mice; test: Oral glucose tolerance test (OGTT) in diet-induced obese mice; type: in vivo, mouse; settings: for glucose lowering effects in OGTT (glucose AUC): DIO C57BL/6 mice, 125 mg/kg i.p. once daily for 5 days
Description: High-fat diet feeding in rodents changes multiple biochemical and physiological parameters that reflect the biochemical and physiological changes observed in diet induced obesity (D10). Such diets induce dramatic changes in weight gain that are concomitant with elevations in serum cholesterol, lipids, and triglycerides. Moreover, these high fat diets can lead to atherosclerotic lesions as well as insulin resistance and dysregulation of glucose homeostatic mechanisms that are consistent with obesity induced changes in humans.
Type II diabetes is characterized by high blood glucose levels in the presence of normal amounts of insulin. The animal model or type II diabetes used in these studies involves administering high levels of glucose and then measuring blood glucose levels over time. The test is designed to determine the ability of the experimental animal to maintain glucose homeostasis over time. Drugs that lower blood glucose levels in type II diabetic patients also lower blood glucose levels in this animal model of type II diabetes.
Male C57BL/6J mice were fed a high fat diet for 5 weeks (age 6-11 weeks) prior to study. […] DIO mice were food deprived overnight prior to glucose load (1.5 g/kg, t0). Mice were treated with drug or vehicle 30 minutes before glucose load (t-30). Blood glucose was measured with a glucometer (Accu-Chek® Roche, Indianapolis, IN), from the tip of the tail in free moving mice, at 15 minutes before (t-15), 15 minutes after (t15), and 45 minutes after (t45) glucose load.
In these studies, C57BL/6 mice were fed a high fat diet from 6 to 11 weeks of age, resulting in diet-induced obesity. […] After 5 days of dosing, animals were fasted overnight prior to an oral glucose tolerance test (OGTT). The morning after fasting, a baseline glucose level was measured, followed by compound or vehicle dosing. A second blood glucose level was measured 15 minutes later. At 30 minutes past the first glucose measurement, animals were challenged with a 1.5 g/kg glucose solution per os (p.o.), and blood glucose levels determined 15 and 45 minutes later. Areas under the curve were determined for the blood glucose levels, baselined at the first measurement.

[8] = Body weight of DIO mice during 15-day treatment; type: in vivo, mouse; settings: either time-point or dose (data not shown)
[9] = target: T1, human recombinant dipeptidyl dipeptidase-4 (DPP4) (Homo sapiens, UniProt P27487); test: Human recombinant DPP4 assay with fluorogenic substrate GP-AMC; type: biochemical; settings: 10 μM; % of control; ns
T1 construct: Cerep (contract laboratory that ran the assay)
T1 sequence (P27487 whole entry): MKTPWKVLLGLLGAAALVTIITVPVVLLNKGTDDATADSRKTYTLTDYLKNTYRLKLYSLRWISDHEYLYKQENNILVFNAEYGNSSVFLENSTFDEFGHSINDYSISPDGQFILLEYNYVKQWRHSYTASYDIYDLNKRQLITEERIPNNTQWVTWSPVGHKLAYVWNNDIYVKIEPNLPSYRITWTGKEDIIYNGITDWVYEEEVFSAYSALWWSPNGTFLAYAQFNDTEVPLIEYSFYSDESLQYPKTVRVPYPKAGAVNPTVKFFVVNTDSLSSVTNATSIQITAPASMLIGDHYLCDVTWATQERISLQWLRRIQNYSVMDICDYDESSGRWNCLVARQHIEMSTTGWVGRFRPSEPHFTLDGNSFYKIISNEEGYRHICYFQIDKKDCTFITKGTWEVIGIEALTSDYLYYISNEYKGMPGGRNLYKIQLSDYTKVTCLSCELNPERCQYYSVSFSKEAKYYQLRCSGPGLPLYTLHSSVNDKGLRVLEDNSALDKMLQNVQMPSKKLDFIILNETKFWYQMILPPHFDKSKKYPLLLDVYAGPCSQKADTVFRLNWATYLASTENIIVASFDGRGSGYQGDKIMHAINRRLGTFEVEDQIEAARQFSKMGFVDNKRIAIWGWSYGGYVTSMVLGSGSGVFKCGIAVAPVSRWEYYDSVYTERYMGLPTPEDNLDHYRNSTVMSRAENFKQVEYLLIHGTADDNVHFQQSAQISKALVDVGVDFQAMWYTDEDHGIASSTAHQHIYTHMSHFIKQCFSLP
Procedure: DPP4 inhibitor K579 was used as a positive control. Assay was performed by Cerep (Bois l'Eveque, France).
Inhibition is represented as % of control.

[10] = target: Kir6.2/SUR1 potassium channels (Homo sapiens, UniProt Q09428+Q14654); test: Kir6.2/SUR1 potassium channel patch clamp (PatchXpress) in HEK293 cells
Kir6.2/SUR1 potassium channels, sequence (Q14654 whole entry): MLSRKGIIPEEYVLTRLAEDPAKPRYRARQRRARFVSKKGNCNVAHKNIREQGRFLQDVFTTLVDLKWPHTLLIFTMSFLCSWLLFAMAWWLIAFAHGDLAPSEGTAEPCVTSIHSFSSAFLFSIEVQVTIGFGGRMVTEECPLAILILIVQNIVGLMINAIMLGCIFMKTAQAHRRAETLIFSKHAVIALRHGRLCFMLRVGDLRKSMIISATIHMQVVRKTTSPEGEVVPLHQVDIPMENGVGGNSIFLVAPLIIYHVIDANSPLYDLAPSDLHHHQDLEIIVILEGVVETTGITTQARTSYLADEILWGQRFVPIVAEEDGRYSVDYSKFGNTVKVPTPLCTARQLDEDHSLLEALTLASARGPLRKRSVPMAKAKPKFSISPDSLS
Kir6.2/SUR1 potassium channels, sequence (Q09428 whole entry): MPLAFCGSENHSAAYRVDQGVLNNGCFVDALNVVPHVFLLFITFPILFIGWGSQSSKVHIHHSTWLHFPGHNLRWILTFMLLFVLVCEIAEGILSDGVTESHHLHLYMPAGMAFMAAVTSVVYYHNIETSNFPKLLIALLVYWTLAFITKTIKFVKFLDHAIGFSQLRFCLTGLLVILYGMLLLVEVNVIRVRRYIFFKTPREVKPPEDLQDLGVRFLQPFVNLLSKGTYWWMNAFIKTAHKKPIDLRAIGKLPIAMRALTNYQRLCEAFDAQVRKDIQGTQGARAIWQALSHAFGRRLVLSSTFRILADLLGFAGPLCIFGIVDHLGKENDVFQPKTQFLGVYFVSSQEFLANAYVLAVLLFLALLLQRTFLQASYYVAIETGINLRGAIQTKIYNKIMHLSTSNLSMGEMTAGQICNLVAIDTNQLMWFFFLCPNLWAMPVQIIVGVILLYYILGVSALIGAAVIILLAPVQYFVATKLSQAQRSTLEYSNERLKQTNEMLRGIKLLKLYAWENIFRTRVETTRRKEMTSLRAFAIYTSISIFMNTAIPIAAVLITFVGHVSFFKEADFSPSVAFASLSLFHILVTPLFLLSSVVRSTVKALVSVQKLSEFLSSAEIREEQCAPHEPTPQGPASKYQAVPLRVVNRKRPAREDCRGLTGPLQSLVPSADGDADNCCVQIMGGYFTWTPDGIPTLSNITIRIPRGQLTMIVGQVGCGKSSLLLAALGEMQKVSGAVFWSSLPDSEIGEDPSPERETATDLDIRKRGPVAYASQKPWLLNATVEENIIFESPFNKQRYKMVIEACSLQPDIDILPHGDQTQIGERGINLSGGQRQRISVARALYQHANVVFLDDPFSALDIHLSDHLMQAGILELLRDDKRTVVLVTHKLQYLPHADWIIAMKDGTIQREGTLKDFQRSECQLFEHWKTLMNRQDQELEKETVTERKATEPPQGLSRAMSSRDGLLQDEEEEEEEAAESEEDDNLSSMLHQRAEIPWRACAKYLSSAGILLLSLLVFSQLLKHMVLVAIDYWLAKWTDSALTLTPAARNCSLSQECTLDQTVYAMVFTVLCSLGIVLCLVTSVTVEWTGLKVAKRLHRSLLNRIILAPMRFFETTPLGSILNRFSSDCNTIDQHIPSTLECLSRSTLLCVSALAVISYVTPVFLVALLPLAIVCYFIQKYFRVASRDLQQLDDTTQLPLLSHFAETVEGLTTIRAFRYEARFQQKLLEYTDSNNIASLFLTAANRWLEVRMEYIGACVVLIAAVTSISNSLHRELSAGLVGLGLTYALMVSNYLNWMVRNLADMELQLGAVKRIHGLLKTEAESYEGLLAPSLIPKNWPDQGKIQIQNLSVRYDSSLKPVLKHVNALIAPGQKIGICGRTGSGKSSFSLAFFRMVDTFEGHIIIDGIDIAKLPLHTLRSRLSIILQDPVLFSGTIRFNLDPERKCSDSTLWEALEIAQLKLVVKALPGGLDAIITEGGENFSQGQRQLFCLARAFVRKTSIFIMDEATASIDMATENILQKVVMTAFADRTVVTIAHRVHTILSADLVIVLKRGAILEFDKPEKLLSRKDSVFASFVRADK
Description: Inhibition is represented as % of control. “ns” represents not statistically significant or P>0.05.

Structure (SMILES): CCN1CCC[C@@H]1CNC(=O)c1cc(S(=O)(=O)CC)c(N)cc1OC [(R)-amisulpride, (R)(+)-amisulpride]
ED50 for effect on circulating prolactin levels [1]: 1.5 mg/kg
increase in circulating insulin levels compared to vehicle ([2]; OGTT): approximately 2.5 fold
glucose excursions ([2]; vs vehicle): significantly decreased
active form GLP-1 levels from the hepatic portal vein [3]: unchanged
maximal plasma drug levels [4]: did not exceed concentrations used in the in vitro assays
increase in serum prolactin levels [5]: 1 fold
increase in ED50 required to reach maximal effect on prolactin, compared to (S)-amisulpride [5]: 40 fold
times less potent than (S)-amisulpride in displacing dopamine D2/D3 receptor ligands [6]: 20-40 times

Structure (SMILES): CCN1CCC[C@H]1CNC(=O)c1cc(S(=O)(=O)CC)c(N)cc1OC [(S)-amisulpride, (S)(−)-amisulpride]
ED50 for effect on circulating prolactin levels [1]: 0.01 mg/kg
increase in serum prolactin levels [5]: 4 fold

% inhibition of DPP4 [9]: 1.9 (2.0) %
% inhibition of Kir6.2/SUR1 ([10]; 10 μM, HEK293 cells, channel activated with 300 μM diazoxide, % of control, ns): 3.4 (2.4) %
effect on the sulphonylurea receptor in-vitro ([10]; in-vitro (Table 5)): unaffected
Structure (SMILES): CCN1CCCC1CNC(=O)c1cc(S(=O)(=O)CC)c(N)cc1OC (racemic) [(R/S)-amisulpride, amisulpride]
glucose lowering effects in OGTT (glucose AUC) [7]: glucose lowering effects
fasting blood glucose levels ([7]; DIO mice, 20 mg/kg, following 5 days of treatment, P<0.05 vs vehicle): 158.7 ± 7.5 mg/dL
glucose excursion during the OGTT ([7]; DIO mice, once daily i.p. for 15 days, both amisulpride doses, OGTT on days 5 and 15): significant reduction
changes in body weight [8]: No changes

Structure (SMILES): CCN1CCCC1CNC(=O)c1cc(S(N)(=O)=O)ccc1OC (racemic) [(R/S)-sulpride]
glucose lowering effects in OGTT (glucose AUC) [7]: glucose lowering effects
